Experimental data published in ChEMBL document CHEMBL2331144, “Synthesis and anticancer activity of analogues of phenstatin, with a phenothiazine A-ring, as a new class of microtubule-targeting agents” (Bioorg Med Chem Lett, 2013).

How the values were obtained:
SK-MEL-2 = assay: Growth inhibition of human SK-MEL-2 cells after 48 hrs by sulforhodamine B assay; type: functional; conditions: SK-MEL-2, 48 h
OVCAR-5 = assay: Growth inhibition of human OVCAR5 cells after 48 hrs by sulforhodamine B assay; type: functional; conditions: OVCAR-5, 48 h
K562 = assay: Growth inhibition of human K562 cells after 48 hrs by sulforhodamine B assay; type: functional; conditions: K562, 48 h
PC-3 = assay: Growth inhibition of human PC3 cells after 48 hrs by sulforhodamine B assay; type: functional; conditions: PC-3, 48 h
COLO 205 = assay: Growth inhibition of human COLO205 cells after 48 hrs by sulforhodamine B assay; type: functional; conditions: COLO 205, 48 h
UACC-62 = assay: Growth inhibition of human UACC62 cells after 48 hrs by sulforhodamine B assay; type: functional; conditions: UACC-62, 48 h
BT-549 = assay: Growth inhibition of human BT549 cells after 48 hrs by sulforhodamine B assay; type: functional; conditions: BT-549, 48 h
HOP-62 = assay: Growth inhibition of human HOP62 cells after 48 hrs by sulforhodamine B assay; type: functional; conditions: HOP-62, 48 h
SNB-75 = assay: Growth inhibition of human SNB75 cells after 48 hrs by sulforhodamine B assay; type: functional; conditions: SNB-75, 48 h
DU-145 = assay: Growth inhibition of human DU145 cells after 48 hrs by sulforhodamine B assay; type: functional; conditions: DU-145, 48 h
SK-MEL-28 = assay: Growth inhibition of human SK-MEL-28 cells after 48 hrs by sulforhodamine B assay; type: functional; conditions: SK-MEL-28, 48 h
HT-29 = assay: Growth inhibition of human HT-29 cells after 48 hrs by sulforhodamine B assay; type: functional; conditions: HT-29, 48 h
NCI-H23 = assay: Growth inhibition of human NCI-H23 cells after 48 hrs by sulforhodamine B assay; type: functional; conditions: NCI-H23, 48 h
MOLT-4 = assay: Growth inhibition of human MOLT4 cells after 48 hrs by sulforhodamine B assay; type: functional; conditions: MOLT-4, 48 h
IGROV-1 = assay: Growth inhibition of human IGROV1 cells after 48 hrs by sulforhodamine B assay; type: functional; conditions: IGROV-1, 48 h
HCT-15 = assay: Growth inhibition of human HCT15 cells after 48 hrs by sulforhodamine B assay; type: functional; conditions: HCT-15, 48 h
SR = assay: Growth inhibition of human SR cells after 48 hrs by sulforhodamine B assay; type: functional
SN12C = assay: Growth inhibition of human SN12C cells after 48 hrs by sulforhodamine B assay; type: functional
T47D = assay: Growth inhibition of human T47D cells after 48 hrs by sulforhodamine B assay; type: functional
ACHN = assay: Growth inhibition of human ACHN cells after 48 hrs by sulforhodamine B assay; type: functional
LOX IMVI = assay: Growth inhibition of human LOXIMVI cells after 48 hrs by sulforhodamine B assay; type: functional
Ovis aries = organism: Ovis aries; assay: Inhibition of sheep brain tubulin polymerization at 100 uM using DAPI by fluorimetry
SF-295 = assay: Growth inhibition of human SF295 cells after 48 hrs by sulforhodamine B assay; type: functional; conditions: SF-295, 48 h
OVCAR-3 = assay: Growth inhibition of human OVCAR3 cells after 48 hrs by sulforhodamine B assay; type: functional; conditions: OVCAR-3, 48 h
MDA-MB-231 = assay: Growth inhibition of human MDA-MB-231 cells after 48 hrs by sulforhodamine B assay; type: functional; conditions: MDA-MB-231, 48 h
TK-10 = assay: Growth inhibition of human TK10 cells after 48 hrs by sulforhodamine B assay; type: functional; conditions: TK-10, 48 h
CCRF-CEM = assay: Growth inhibition of human CCRF-CEM cells after 48 hrs by sulforhodamine B assay; type: functional
[1] = Growth inhibition of human NCI-ADR-RES cells after 48 hrs by sulforhodamine B assay; type: functional
A498 = assay: Growth inhibition of human A498 cells after 48 hrs by sulforhodamine B assay; type: functional; conditions: A498, 48 h
CAKI-1 = assay: Growth inhibition of human CAKI-1 cells after 48 hrs by sulforhodamine B assay; type: functional; conditions: CAKI-1, 48 h
SK-MEL-5 = assay: Growth inhibition of human SK-MEL-5 cells after 48 hrs by sulforhodamine B assay; type: functional; conditions: SK-MEL-5, 48 h
MDA-MB-468 = assay: Growth inhibition of human MDA-MB-468 cells after 48 hrs by sulforhodamine B assay; type: functional; conditions: MDA-MB-468, 48 h
A549 = assay: Growth inhibition of human A549/ATCC cells after 48 hrs by sulforhodamine B assay; type: functional; conditions: A549, 48 h
[2] = Growth inhibition of human Hs 578T cells after 48 hrs by sulforhodamine B assay; type: functional
RPMI-8226 = assay: Growth inhibition of human RPMI8226 cells after 48 hrs by sulforhodamine B assay; type: functional; conditions: RPMI-8226, 48 h
Malme-3M = assay: Growth inhibition of human MALME-3M cells after 48 hrs by sulforhodamine B assay; type: functional
HOP-92 = assay: Growth inhibition of human HOP92 cells after 48 hrs by sulforhodamine B assay; type: functional; conditions: HOP-92, 48 h
NCI-H522 = assay: Growth inhibition of human NCI-H522 cells after 48 hrs by sulforhodamine B assay; type: functional; conditions: NCI-H522, 48 h
KM12 = assay: Growth inhibition of human KM12 cells after 48 hrs by sulforhodamine B assay; type: functional; conditions: KM12, 48 h
SF-539 = assay: Growth inhibition of human SF539 cells after 48 hrs by sulforhodamine B assay; type: functional; conditions: SF-539, 48 h
[3] = Growth inhibition of human HCC2998 cells after 48 hrs by sulforhodamine B assay; type: functional; conditions: HCC 2998, 48 h
RXF 393 = assay: Growth inhibition of human RXF393 cells after 48 hrs by sulforhodamine B assay; type: functional; conditions: RXF 393, 48 h
SK-OV-3 = assay: Growth inhibition of human SKOV3 cells after 48 hrs by sulforhodamine B assay; type: functional; conditions: SK-OV-3, 48 h
786-0 = assay: Growth inhibition of human 786-0 cells after 48 hrs by sulforhodamine B assay; type: functional; conditions: 786-0, 48 h
MCF7 = assay: Growth inhibition of human MCF7 cells after 48 hrs by sulforhodamine B assay; type: functional; conditions: MCF7, 48 h
OVCAR-4 = assay: Growth inhibition of human OVCAR4 cells after 48 hrs by sulforhodamine B assay; type: functional; conditions: OVCAR-4, 48 h
HCT-116 = assay: Growth inhibition of human HCT116 cells after 48 hrs by sulforhodamine B assay; type: functional; conditions: HCT-116, 48 h
HL-60(TB) = assay: Growth inhibition of human HL-60(TB) cells after 48 hrs by sulforhodamine B assay; type: functional; conditions: HL-60, 48 h
NCI-H460 = assay: Growth inhibition of human NCI-H460 cells after 48 hrs by sulforhodamine B assay; type: functional; conditions: NCI-H460, 48 h
SF-268 = assay: Growth inhibition of human SF268 cells after 48 hrs by sulforhodamine B assay; type: functional; conditions: SF-268, 48 h
OVCAR-8 = assay: Growth inhibition of human OVCAR8 cells after 48 hrs by sulforhodamine B assay; type: functional; conditions: OVCAR-8, 48 h
SW-620 = assay: Growth inhibition of human SW620 cells after 48 hrs by sulforhodamine B assay; type: functional; conditions: SW-620, 48 h
M14 = assay: Growth inhibition of human M14 cells after 48 hrs by sulforhodamine B assay; type: functional; conditions: M14, 48 h
MDA-MB-435 = assay: Growth inhibition of human MDA-MB-435 cells after 48 hrs by sulforhodamine B assay; type: functional; conditions: MDA-MB-435, 48 h

COc1cc2cc(C(=O)N3c4ccccc4Sc4ccccc43)[nH]c2cc1OC
GI50 (SK-MEL-2): 873 nM | GI50 (OVCAR-5): 2590 nM | GI50 (K562): 437 nM | GI50 (PC-3): 435 nM | GI50 (COLO 205): 595 nM | GI50 (UACC-62): 529 nM | GI50 (BT-549): 6060 nM | GI50 (HOP-62): 838 nM | GI50 (SNB-75): 392 nM | GI50 (DU-145): 679 nM | GI50 (SK-MEL-28): 829 nM | GI50 (HT-29): 395 nM | GI50 (NCI-H23): 7140 nM | GI50 (MOLT-4): 1540 nM | GI50 (IGROV-1): 1880 nM | GI50 (HCT-15): 442 nM | GI50 (SR): 303 nM | GI50 (SN12C): 3860 nM | GI50 (T47D): 804 nM | GI50 (ACHN): 611 nM | GI50 (LOX IMVI): 3310 nM | inhibition (Ovis aries): 36% | GI50 (SF-295): 329 nM | GI50 (OVCAR-3): 366 nM | GI50 (MDA-MB-231): 184 nM | GI50 (TK-10): 8310 nM | GI50 (CCRF-CEM): 589 nM | GI50 [1]: 571 nM | GI50 (A498): 215 nM | GI50 (CAKI-1): 573 nM | GI50 (SK-MEL-5): 300 nM | GI50 (MDA-MB-468): 204 nM | GI50 (A549): 656 nM | GI50 [2]: 1960 nM | GI50 (RPMI-8226): 902 nM | GI50 (Malme-3M): 503 nM | GI50 (HOP-92): 54 nM | GI50 (NCI-H522): 335 nM | GI50 (KM12): 620 nM | GI50 (SF-539): 517 nM | GI50 [3]: 23400 nM | GI50 (RXF 393): 363 nM | GI50 (SK-OV-3): 723 nM | GI50 (786-0): 941 nM | GI50 (MCF7): 368 nM | GI50 (OVCAR-4): 1750 nM | GI50 (HCT-116): 537 nM | GI50 (HL-60(TB)): 387 nM | GI50 (NCI-H460): 396 nM | GI50 (SF-268): 10200 nM | GI50 (OVCAR-8): 1630 nM | GI50 (SW-620): 418 nM | GI50 (M14): 599 nM | GI50 (MDA-MB-435): 184 nM
